The values that follow are results of earlier work, collected in patent publication US9078464B2 (EDIO HEALTHCARE AB, priority 2008, dated 2015).

For the data set the following is noted: in vivo.

`CC(C)CCC[C@@H](C)[C@H]1CC[C@H]2[C@@H]3CC=C4C[C@@H](O)CC[C@]4(C)[C@H]3CC[C@]12C` [cholesterol]: the “absorption from the intestine” value is reported as “around 60%”.
